Measurements: patent US20120282377A1, “Methods and Formulations for Inhibiting Degradation of Photosensitive Sweeteners and Sweetener Enhancers” (priority 2011, published 2012)

How the values were obtained:
Assay type in all cases: physicochemical
[1] = Sucrose enhancer stability in prototype beverage formulation, UV irradiation in Atlas SunTest XLS+ (Example 6)
Experimental: The stability of sucrose enhancer 3-((4-amino-2,2-dioxido-1H-benzo[c][1,2,6]thiadiazin-5-yl)oxy)-2,2-dimethyl-N-propylpropanamide in regular PET bottles and PET bottles with UV barrier was evaluated. A control formulation was used that contained 106 mg sucrose enhancer in 4163 mg of a prototype beverage formulation. The prototype beverage formulation contained water, HFCS-55, citric acid, potassium citrate, EDTA, salts and vitamins. The samples were exposed to UV light using different Langley irradiation energy exposure at 40° C. in Atlas SunTest XLS+chamber.

[2] = Photodegradation on exposure to sunlight / UV light (background statements); details: sunlight for 2-3 days
Description: Monatin (2-amino-4-carboxy-4-hydroxy-5-(3-indolyl)-pentanoic acid or 4-hydroxy-4-(3-indolylmethyl)-glutamic acid) is a natural sweetener. Monatin contains two chiral centers and therefore has four potential isomeric configurations: R,R-; S,S-; R,S-; and S,R-monatin. Different stereoisomers have different sweetening characteristics. Amino et al. have reported that the sweetness intensity is dependent on the optical purity of each stereoisomer (U.S. Patent Publication No. 2005/0020508).

[3] = Stability of sweetness enhancer to sunlight exposure in PET bottle with and without UV barrier (Example 1); details: 25 mg/L solution, 395 Langleys (Atlas Sun Test XLS+)
Experimental: Sweetness enhancer 3-((4-amino-2,2 -dioxido-1H-benzo [c][1,2,6]thiadiazin-5-yl)oxy)-2,2-dimethyl-N-propylpropanamide was evaluated for stability to sunlight exposure when formulated into a beverage packaged in PET packaging (bottle) with and without a UV barrier. The UV barrier PET bottle contained a UV absorbent compound that absorbs light up to approximately 390 nm. When a 25 mg/L solution of 3-((4-amino-2,2-dioxido-1H-benzo[c][1,2,6]thiadiazin-5-yl)oxy)-2,2-dimethyl-N-propylpropanamide was exposed to 395 Langleys of radiation (Atlas Sun Test XLS+Instrument) in a clear PET bottle with no UV barrier, 92% of 3-((4-amino-2,2 -dioxido-1H-benzo [c][1,2,6]thiadiazin-5-yl)oxy)-2,2-dimethyl-N-propylpropanamide was lost to degradation. The light exposure in this experiment was approximately equivalent to 24 hours of continuous irradiation or 2-3 days of normal sunlight irradiation (due to day/night cycle). In contrast, when the same experiment was carried out in a UV barrier PET bottle, only 10% of the 3-((4-amino-2,2-dioxido-1H-benzo[c][1,2,6]thiadiazin-5-yl)oxy)-2,2-dimethyl-N-propylpropanamide was lost to degradation.

[4] = prototype beverage formulation (control), PET, 0 Langley
[5] = prototype beverage formulation, PET with UV barrier, 66 Langley, 40° C.
[6] = prototype beverage formulation, PET with UV barrier, 197 Langley, 40° C.
[7] = prototype beverage formulation, PET with UV barrier, 395 Langley, 40° C.
[8] = prototype beverage formulation, PET, 66 Langley, 40° C.
[9] = prototype beverage formulation, PET, 197 Langley, 40° C.
[10] = prototype beverage formulation, PET, 395 Langley, 40° C.

## CCCNC(=O)C(C)(C)COc1cccc2c1C(N)=NS(=O)(=O)N2 [Sucrose enhancer, 3-((4-amino-2,2-dioxido-1H-benzo[c][1,2,6]thiadiazin-5-yl)oxy)-2,2-dimethyl-N-propylpropanamide]
[1]; [4]
  Loss of Sucrose Enhancer (%): 0%
  Remaining Sucrose Enhancer (%): 100%
  Remaining Sucrose Enhancer (ppm): 21.5 ppm
[1]; [5]
  Loss of Sucrose Enhancer (%): 4%
  Remaining Sucrose Enhancer (%): 96%
  Remaining Sucrose Enhancer (ppm): 20.7 ppm
[1]; [6]
  Loss of Sucrose Enhancer (%): 5%
  Remaining Sucrose Enhancer (%): 95%
  Remaining Sucrose Enhancer (ppm): 20.5 ppm
[1]; [7]
  Loss of Sucrose Enhancer (%): 10%
  Remaining Sucrose Enhancer (%): 90%
  Remaining Sucrose Enhancer (ppm): 19.3 ppm
[1]; [8]
  Loss of Sucrose Enhancer (%): 37%
  Remaining Sucrose Enhancer (%): 63%
  Remaining Sucrose Enhancer (ppm): 13.6 ppm
[1]; [9]
  Loss of Sucrose Enhancer (%): 75%
  Remaining Sucrose Enhancer (%): 25%
  Remaining Sucrose Enhancer (ppm): 5.4 ppm
[1]; [10]
  Loss of Sucrose Enhancer (%): 92%
  Remaining Sucrose Enhancer (%): 7.9%
  Remaining Sucrose Enhancer (ppm): 1.7 ppm
[2]
  degradation upon exposure to sunlight: completely degraded to inactive ingredients
[3]; UV barrier PET bottle
  lost to degradation: 10%
[3]; clear PET bottle with no UV barrier
  lost to degradation: 92%
